In patent publication US9598359B2, “Sulfonates from natural oil metathesis” (priority 2010, dated 2017):
Read-outs that look alike come from different tables or passages of the source.

Experiments:
[1] = format: physicochemical; parameters: key to Spont. (spontaneity or bloom): E (excellent); G (good); F (fair); P (poor); settings: for % Separation, 1 h / % Separation, 24 h: C = cream; for % Separation, 24 h, oil: O = oil separated, Tr = trace of oil

C=CCCCCCCCC(=O)OC(CCCCCCCC(=O)[O-])CS(=O)(=O)[O-].[Na+].[Na+] (centres unmarked) [C10-32, C10 UFA SLA]
Emulsion stability, mL separation, 1 h (Adjuvant (anionic/nonionic) test sample): 0 mL | Emulsion stability, mL separation, 24 h (Adjuvant (anionic/nonionic) test sample, Tr = trace): Tr | Emulsion stability, mL separation, 1 h (Anionic test sample): 0 mL | Emulsion stability, mL separation, 24 h (Anionic test sample): 0 mL | sol (solubility) (Anionic test sample, 342 ppm water, 30° C.): S | Emulsion stability, mL separation, 1 h (Nonionic test sample): 1 mL | Emulsion stability, mL separation, 24 h (Nonionic test sample): 1 mL | Spont. (spontaneity or bloom) ([1]; 34 ppm water): F | % Separation, 1 h ([1]; 34 ppm water): 3% | % Separation, 24 h ([1]; 34 ppm water): 3.9% | Spont. (spontaneity or bloom) ([1]; 1000 ppm water): F | % Separation, 1 h ([1]; 1000 ppm water): 2.5% | % Separation, 24 h ([1]; 1000 ppm water): 3%

CCCCCCCCCC(=O)OC(CCCCCCCC(=O)OC)CS(=O)(=O)[O-].[Na+] (centres unmarked) [C10-35, C10 UME C10 FA (60:40) SLA]
Spont. (spontaneity or bloom) ([1]; 34 ppm water): F | % Separation, 1 h ([1]; 34 ppm water): 3% | % Separation, 24 h ([1]; 34 ppm water): 3% | Spont. (spontaneity or bloom) ([1]; 1000 ppm water): F | % Separation, 1 h ([1]; 1000 ppm water): 3.4% | % Separation, 24 h ([1]; 1000 ppm water): 4%

CCCCCCCCCCCC(=O)OC(CCCCCCCC(=O)[O-])C(CC)S(=O)(=O)[O-].[Na+].[Na+] (centres unmarked) [C12-35, C12 UFA C12 FA (80:20) SLA]
Spont. (spontaneity or bloom) ([1]; 34 ppm water): F | % Separation, 1 h ([1]; 34 ppm water): 3.8% | % Separation, 24 h ([1]; 34 ppm water): 5 C, % | % Separation, 24 h, oil ([1]; 34 ppm water): Tr | Spont. (spontaneity or bloom) ([1]; 1000 ppm water): F | % Separation, 1 h ([1]; 1000 ppm water): 3% | % Separation, 24 h ([1]; 1000 ppm water): 4 C, % | % Separation, 24 h, oil ([1]; 1000 ppm water): Tr

CCCCCCCCCCCCCCCCCC(=O)OC(CCCCCCCC(=O)[O-])C(CC)S(=O)(=O)[O-].[Na+].[Na+] (centres unmarked) [C12-36, C12 UFA C18 FA (80:20) SLA]
Spont. (spontaneity or bloom) ([1]; 34 ppm water): F | % Separation, 1 h ([1]; 34 ppm water): 3.8% | % Separation, 24 h ([1]; 34 ppm water): 4.5 C, % | % Separation, 24 h, oil ([1]; 34 ppm water): Tr | Spont. (spontaneity or bloom) ([1]; 1000 ppm water): F | % Separation, 1 h ([1]; 1000 ppm water): 3.6% | % Separation, 24 h ([1]; 1000 ppm water): 4 C, % | % Separation, 24 h, oil ([1]; 1000 ppm water): Tr

CCCCCCCCCCCC(=O)OC(CCCCCCCC(=O)OC)C(CC)S(=O)(=O)[O-].[Na+] (centres unmarked) [C12-37, C12 UME C12 FA (60:40) SLA]
Spont. (spontaneity or bloom) ([1]; 34 ppm water): F | % Separation, 1 h ([1]; 34 ppm water): 3% | % Separation, 24 h ([1]; 34 ppm water): 4 C, % | % Separation, 24 h, oil ([1]; 34 ppm water): <1 O % | Spont. (spontaneity or bloom) ([1]; 1000 ppm water): F | % Separation, 1 h ([1]; 1000 ppm water): 3% | % Separation, 24 h ([1]; 1000 ppm water): 3 C, % | % Separation, 24 h, oil ([1]; 1000 ppm water): 1 O %

CCCCCCCCCC(=O)OC(CCCCCCCC(=O)OC)C(CCCCCCCC(=O)OC)S(=O)(=O)[O-].[Na+] (centres unmarked) [C18-63, DBE C10 FA (60:40) SLA]
Spont. (spontaneity or bloom) ([1]; 34 ppm water): F | % Separation, 1 h ([1]; 34 ppm water): 3.1% | % Separation, 24 h ([1]; 34 ppm water): 3 C, % | % Separation, 24 h, oil ([1]; 34 ppm water): 1 O % | Spont. (spontaneity or bloom) ([1]; 1000 ppm water): F | % Separation, 1 h ([1]; 1000 ppm water): 3% | % Separation, 24 h ([1]; 1000 ppm water): 2.5 C, % | % Separation, 24 h, oil ([1]; 1000 ppm water): 1 O %

CCCCCCCCCC(=O)OC(CCCCCCCC(=O)OC)C(CCCCCCCC(=O)OC)S(=O)(=O)[O-].[Na+] (centres unmarked) [C18-64, DBE C10 FA (75:25) SLA]
Spont. (spontaneity or bloom) ([1]; 34 ppm water): F− | % Separation, 1 h ([1]; 34 ppm water): 3.2% | % Separation, 24 h ([1]; 34 ppm water): 2.5 C, % | % Separation, 24 h, oil ([1]; 34 ppm water): 1 O % | Spont. (spontaneity or bloom) ([1]; 1000 ppm water): F− | % Separation, 1 h ([1]; 1000 ppm water): 3.7% | % Separation, 24 h ([1]; 1000 ppm water): 3 C, % | % Separation, 24 h, oil ([1]; 1000 ppm water): 1 O %
